Type in all cases: ADME
The target in data set [1] is T1, Cytochrome P450 1B1 (Homo sapiens, UniProt Q16678).
T1 sequence (Q16678 whole entry): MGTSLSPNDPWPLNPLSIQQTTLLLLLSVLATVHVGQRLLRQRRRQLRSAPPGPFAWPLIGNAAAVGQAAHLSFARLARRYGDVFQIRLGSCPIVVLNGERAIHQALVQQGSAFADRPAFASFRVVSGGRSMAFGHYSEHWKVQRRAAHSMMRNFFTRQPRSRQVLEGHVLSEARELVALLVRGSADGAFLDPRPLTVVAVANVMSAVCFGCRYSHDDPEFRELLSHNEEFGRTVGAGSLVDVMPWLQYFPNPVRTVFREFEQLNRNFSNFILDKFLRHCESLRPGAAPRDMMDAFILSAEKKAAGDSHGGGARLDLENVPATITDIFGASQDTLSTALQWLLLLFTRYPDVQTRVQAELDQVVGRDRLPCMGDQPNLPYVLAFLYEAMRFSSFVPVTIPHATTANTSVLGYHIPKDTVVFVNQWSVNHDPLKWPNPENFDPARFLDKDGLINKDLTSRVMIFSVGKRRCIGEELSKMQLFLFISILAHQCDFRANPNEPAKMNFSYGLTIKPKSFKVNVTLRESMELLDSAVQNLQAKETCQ
The data set is described as follows: Inhibition of CYP1B1 (unknown origin) by EROD assay.

Data set [2] concerns the target T2, Cytochrome P450 1A1 (Homo sapiens, UniProt P04798).
T2 sequence (P04798 whole entry): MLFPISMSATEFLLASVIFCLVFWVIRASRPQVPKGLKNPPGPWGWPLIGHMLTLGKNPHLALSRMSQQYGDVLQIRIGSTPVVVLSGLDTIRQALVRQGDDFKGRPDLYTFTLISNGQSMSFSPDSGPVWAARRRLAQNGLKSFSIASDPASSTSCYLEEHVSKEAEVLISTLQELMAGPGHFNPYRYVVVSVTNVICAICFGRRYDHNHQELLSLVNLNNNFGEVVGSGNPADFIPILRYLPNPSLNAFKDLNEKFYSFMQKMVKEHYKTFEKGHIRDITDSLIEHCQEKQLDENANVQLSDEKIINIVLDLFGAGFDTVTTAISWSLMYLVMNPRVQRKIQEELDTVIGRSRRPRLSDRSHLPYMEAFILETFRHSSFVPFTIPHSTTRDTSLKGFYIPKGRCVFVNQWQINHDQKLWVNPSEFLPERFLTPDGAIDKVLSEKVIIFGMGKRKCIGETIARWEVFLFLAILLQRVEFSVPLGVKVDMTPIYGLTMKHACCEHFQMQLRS
The data set is described as follows: Inhibition of CYP1A1 (unknown origin).

Data set [3] concerns the target T3, Cytochrome P450 1A2 (Homo sapiens, UniProt P05177).
T3 sequence (P05177 whole entry): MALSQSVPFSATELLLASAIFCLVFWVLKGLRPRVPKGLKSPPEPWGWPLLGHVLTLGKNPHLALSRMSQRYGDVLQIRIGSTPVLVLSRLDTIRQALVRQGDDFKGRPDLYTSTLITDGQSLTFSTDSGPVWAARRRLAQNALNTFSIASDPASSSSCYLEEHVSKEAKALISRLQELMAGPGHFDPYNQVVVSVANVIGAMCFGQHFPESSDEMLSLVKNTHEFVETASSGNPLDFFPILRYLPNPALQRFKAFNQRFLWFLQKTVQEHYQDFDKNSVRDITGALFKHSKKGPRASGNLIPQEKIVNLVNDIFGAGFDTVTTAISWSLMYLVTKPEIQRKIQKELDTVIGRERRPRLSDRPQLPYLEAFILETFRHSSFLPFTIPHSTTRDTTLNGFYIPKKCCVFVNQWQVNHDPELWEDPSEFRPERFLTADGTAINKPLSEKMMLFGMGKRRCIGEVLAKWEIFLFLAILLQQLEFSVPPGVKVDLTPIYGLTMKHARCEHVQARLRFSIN
Put plainly: Inhibition of CYP1A2 (unknown origin).

The subject of data set [4] is CYP1A1 versus CYP1B1. The data set is described as follows: Selectivity ratio of IC50 for inhibition of CYP1A1 (unknown origin) to IC50 for inhibition of CYP1B1 (unknown origin). As to conditions: human; read-out: Ratio IC50.
The test system of data set [5] is CYP1A2 versus CYP1B1. Put plainly: Selectivity ratio of IC50 for inhibition of CYP1A2 (unknown origin) to IC50 for inhibition of CYP1B1 (unknown origin). As to conditions: human; read-out: Ratio IC50.

Where only a bound is given, the exact number is not on record here.

One may read the IC50 as the concentration needed to halve the response being measured. A low value points to higher potency.

For `FCCOc1nc(-c2ccc(Br)cc2)nc2ccccc12`, the results for the IC50 in data set [1], in data set [2] and in data set [3] were 47.3 nM, greater than 1000 nM and greater than 1000 nM, respectively. Also, the selectivity ratio in data set [4] and in data set [5] was greater than 21.1 each time.

Regarding `O=c1[nH]c(-c2ccc(OCCF)cc2)nc2ccccc12`, the IC50 in data set [1] is 49.4 nM; in data set [2], greater than 1000 nM; in data set [3], greater than 1000 nM. Moreover, the selectivity ratio in data set [4] and in data set [5] was greater than 20.2 in each case.

For `O=c1cc(-c2ccccc2)oc2c1ccc1ccccc12` [ALPHA-NAPHTHOFLAVONE], in data set [2], the half-inhibitory concentration (IC50) is 64.2 nM.

The record behind these values is ChEMBL document CHEMBL5329194, “Design, Synthesis, and Evaluation of 18F-Labeling CYP1B1 PET Tracer Based on 2-Phenylquinazolin” (Bioorg Med Chem Lett, 2023).
